# Reference: ChEMBL document CHEMBL5357018, “Discovery of Malarial Threonyl tRNA Synthetase Inhibitors by Screening of a Focused Fragment Library” (ACS Med Chem Lett, 2024)
# Target: T1, threonine--tRNA ligase (Plasmodium falciparum, UniProt Q8IIA4)
# T1 sequence (Q8IIA4 whole entry): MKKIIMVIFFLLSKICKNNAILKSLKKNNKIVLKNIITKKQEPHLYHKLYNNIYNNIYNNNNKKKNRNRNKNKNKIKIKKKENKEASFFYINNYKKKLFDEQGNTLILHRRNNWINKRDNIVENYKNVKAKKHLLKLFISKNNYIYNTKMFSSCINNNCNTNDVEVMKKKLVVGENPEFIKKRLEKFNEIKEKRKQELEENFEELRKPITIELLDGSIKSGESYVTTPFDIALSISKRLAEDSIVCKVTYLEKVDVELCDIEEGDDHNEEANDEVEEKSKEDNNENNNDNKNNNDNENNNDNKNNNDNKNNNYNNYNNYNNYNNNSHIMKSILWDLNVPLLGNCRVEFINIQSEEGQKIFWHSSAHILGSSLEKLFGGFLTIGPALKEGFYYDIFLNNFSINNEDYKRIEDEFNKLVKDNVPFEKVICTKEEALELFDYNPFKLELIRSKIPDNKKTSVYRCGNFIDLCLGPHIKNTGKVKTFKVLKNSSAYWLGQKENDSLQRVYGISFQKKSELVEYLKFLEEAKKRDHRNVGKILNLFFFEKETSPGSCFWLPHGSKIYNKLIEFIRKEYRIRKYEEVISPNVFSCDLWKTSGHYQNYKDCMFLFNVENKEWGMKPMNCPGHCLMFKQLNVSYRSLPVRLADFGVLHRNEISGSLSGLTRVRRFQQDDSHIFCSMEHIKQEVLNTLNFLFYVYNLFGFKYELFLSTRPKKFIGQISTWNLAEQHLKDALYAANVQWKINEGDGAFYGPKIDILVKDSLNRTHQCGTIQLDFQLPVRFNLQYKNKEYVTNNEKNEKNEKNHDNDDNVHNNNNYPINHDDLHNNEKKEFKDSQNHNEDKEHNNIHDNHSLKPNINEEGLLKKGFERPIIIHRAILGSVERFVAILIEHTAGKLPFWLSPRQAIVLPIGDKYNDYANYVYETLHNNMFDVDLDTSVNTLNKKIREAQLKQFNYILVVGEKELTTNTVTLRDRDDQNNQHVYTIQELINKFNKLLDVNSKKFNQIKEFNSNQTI
# Experiment: Inhibition of Plasmodium falciparum Threonyl tRNA synthetase
row,IC50 [nM],Structure (SMILES)
1,33000,C[C@@H](O)[C@H](N)C(=O)NS(=O)(=O)/C=C/c1ccccc1
2,440,C[C@@H](O)[C@H](N)C(=O)NP(=O)(O)OC[C@@H]1C[C@H](O)[C@H](n2cnc3c(N)ncnc32)O1

# The remaining lines, values behind:
row,Structure (SMILES),IC50 [nM]
1,C[C@@H](O)[C@H](N)C(=O)NS(=O)(=O)OC[C@H]1O[C@@H](n2cnc3c(N)ncnc32)[C@H](O)[C@@H]1O,160
2,C[C@@H](O)[C@H](N)C(=O)NS(=O)(=O)/C=C/c1cccc(-c2cc(N)ncn2)c1,57
3,C[C@@H]1C[C@H](C)C[C@H](C)[C@@H](O)CC(=O)O[C@H]([C@@H]2CCC[C@H]2C(=O)O)C/C=C/C=C(/C#N)[C@H](O)[C@@H](C)C1 [BORRELIDIN],43

# Target: T1, threonine--tRNA ligase
row,Structure (SMILES),Ki [nM]
1,C[C@@H]1C[C@H](C)C[C@H](C)[C@@H](O)CC(=O)O[C@H]([C@@H]2CCC[C@H]2C(=O)O)C/C=C/C=C(/C#N)[C@H](O)[C@@H](C)C1 [BORRELIDIN],160

# Target: T1, threonine--tRNA ligase
# Remark: another data set of the same source
# Description: Inhibition of 6xHis-tag recombinant Plasmodium falciparum threonyl tRNA synthetase expressed in Escherichia using L-threonine and total tRNA by luminescence based assay
row,IC50 [nM],Structure (SMILES)
1,100,C[C@@H](O)[C@H](N)C(=O)NS(=O)(=O)c1nc2cc(-c3cc(N)ncn3)ccc2s1
2,36000,C[C@@H](O)[C@H](N)C(=O)NS(=O)(=O)Oc1cccc2ccccc12
3,55000,C[C@@H](O)[C@H](N)C(=O)NS(=O)(=O)Oc1cccc2cccnc12
4,700,C[C@@H](O)[C@H](N)C(=O)NS(=O)(=O)Oc1cccc2nn(-c3cc(N)ncn3)cc12
5,800,C[C@@H](O)[C@H](N)C(=O)NS(=O)(=O)Oc1ccc(-c2cc(N)ncn2)cc1

# Second part, the compound before the results:
row,Structure (SMILES),IC50 [nM]
1,C[C@@H](O)[C@H](N)C(=O)NS(=O)(=O)Oc1ccccc1,51000
2,C[C@@H](O)[C@H](N)C(=O)NS(=O)(=O)c1nc2ccccc2s1,71000
3,C[C@@H](O)[C@H](N)C(=O)NS(=O)(=O)Oc1ccc2ccccc2c1,30000
